Earlier results, collected in patent US20230226079A1, “METHODS AND COMPOSITIONS FOR TREATMENT OF SOLID TUMORS” (Saint Louis University, priority 2022, published 2023).

Tests used:
[1] = in vivo; cited from earlier work
[2] = literature; cited from earlier work
different models = settings: cited from earlier work

Compound: COc1cc2c(Oc3ccc(NC(=O)C4(C(=O)Nc5ccc(F)cc5)CC4)cc3F)ccnc2cc1OCCCN1CCOCC1 [Foretinib]
- adverse side effects [1]: fatigue, hypertension, and gastrointestinal toxicities

Compound: CN1CCN(C2CCN(C(=O)Nc3cc(Oc4ccc(NC(=O)C5(C(=O)Nc6ccc(F)cc6)CC5)c(F)c4)ccn3)CC2)CC1 [Golvatinib]
- adverse side effects [1]: supraventricular tachycardia, convulsion, and pulmonary embolism

Compound: CO[C@H]1C=C2[C@@H](CC[C@H](O[C@@H]3O[C@H](CO)[C@@H](O)[C@@H](O)[C@H]3O)C2(C)C)[C@]2(C)CC[C@]3(C)[C@@H]([C@H](C)C/C=C/C(C)(C)O)CC[C@@]3(C)[C@H]12 [Karaviloside III]
- Reported Biology [2]: cytotoxic activity

Compound: C[C@H](C/C=C/C(C)(C)O)[C@H]1CC[C@@]2(C)[C@@H]3[C@@H](O[C@@H]4O[C@H](CO)[C@@H](O)[C@H](O)[C@H]4O)C=C4[C@@H](CC[C@H](O)C4(C)C)[C@]3(C=O)CC[C@]12C [Momordicoside L]
- Reported Biology [2]: Weak α-glucosidase

Compound: C=C(C)/C=C/C[C@@H](C)[C@H]1CC[C@@]2(C)[C@@H]3[C@@H](O)C=C4[C@@H](CC[C@H](O)C4(C)C)[C@]3(C=O)CC[C@]12C [kuguacin J]
- anticancer effect (different models): showed anticancer effect

Compound: Karayiloside XI
- Reported Biology [2]: Antidiabetic

Compound: Sacranoside A
- Reported Biology [2]: nitric oxide inhibitory

Compound: eleostearic acids
- anticancer effect (different models): showed anticancer effect
